Experimental data taken from article PMC6509406 (Chembiochem : a European journal of chemical biology, 2018).
Entries after “also recorded” stand apart in the source; their conditions may differ.

What was measured:
[1] = target: DgcA (CC3285) diguanylate cyclase (Caulobacter crescentus, UniProt Q9A3B9); test: FRET-based DGC activity assay, dose-response; type: biochemical; conditions: for Hill coeff: from fitting the concentration-response curves; for binding affinity towards DgcA / mode of modulation of DgcA activity: in words; for remaining DGC activity of the enzyme-inhibitor-substrate complex: compound saturating concentration
[2] = test system: mCYPet-YcgR-mYPet c-di-GMP biosensor (PilZ protein YcgR); conditions: cited from earlier work; for biosensor FRET response: specificity for c-di-GMP
[3] = IC50 ± SD, Table 2, negative and silent allosteric modulators
[4] = IC50 (binding affinity) against DgcA, running text and figure legends

| SMILES | IC50 [1, 3] [µM] | Hill coeff ([1]; Table 2) | binding affinity towards DgcA [1] | mode of modulation of DgcA activity [1] | % Activity ESI (DGC activity of the enzyme-substrate-inhibitor complex) ([1]; Table 2, compound saturation) [%] | remaining DGC activity of the enzyme-inhibitor-substrate complex [1] [%] | further results |
| --- | --- | --- | --- | --- | --- | --- | --- |
| Cn1cnc2cc(C(=O)OCC(=O)N3CCCC3=O)ccc21 [Compound 1m, 2-oxo-2-(2-oxopyrrolidin-1-yl)ethyl 1-methyl-1H-benzo[d]imidazole-5-carboxylate] | 82.2 ± 14.6 | 1.52 ± 0.28 | strongly reduced binding affinities | negative modulators | – | – | – |
| Nc1nc2c(ncn2[C@@H]2O[C@@H]3COP(=O)(O)O[C@H]3[C@H]2O)c(=O)[nH]1 [cyclic GMP] | – | – | – | – | – | – | biosensor FRET response [2]: no detectable response |
| CC(OC(=O)c1ccc2ncsc2c1)C(=O)N1CCCC1=O (stereo not drawn) [Compound 1t, 1-oxo-1-(2-oxopyrrolidin-1-yl)propan-2-yl benzo[d]thiazole-6-carboxylate] | – | – | completely abolished binding affinity | – | – | – | – |
| O=C(OCC(=O)N1CCCC1=O)c1ccc2[nH]ccc2c1 [Compound 1k, 2-oxo-2-(2-oxopyrrolidin-1-yl)ethyl 1H-indole-5-carboxylate] | 324 ± 39 | 2.37 ± 0.30 | strongly reduced binding affinities | negative modulators | 6.3 ± 0.4 | – | – |
| O=C(OCC(=O)N1CCCC1=O)c1ccc2cnccc2c1 [Compound 1n, 2-oxo-2-(2-oxopyrrolidin-1-yl)ethyl isoquinoline-6-carboxylate] | 179 ± 10.5 | 2.06 ± 0.15 | strongly reduced binding affinities | negative modulators | 0.0 ± 2.0 | – | – |
| O=C(OCC(=O)N1CCCC1=O)c1ccc2ncsc2c1 [Compound 1, [2-oxo-2-(2-oxopyrrolidin-1-yl)ethyl] 1,3-benzothiazole-6-carboxylate] | – | – | – | complete inhibition; also recorded: complete inhibitor; also recorded: complete negative allosteric modulator | – | 1.4 | IC50 [1, 4]: < 10 µM; IC50 ([1]; IC50 ± SD, Table 1, 20 nM DgcA, 20 μM GTP, 25 °C, 1% DMSO): 4 ± 0.2 µM; Hill coeff ([1]; Table 1): 2.34 ± 0.19; % Activity ESI (DGC activity of the enzyme-substrate-inhibitor complex) ([1]; Table 1, inhibitor saturation): 1.40 ± 0.1% |
| Cc1ccc(C)c(OCCCC(=O)Nc2ccc(N3CCOCC3)cc2)c1 [Compound 2, 4-(2,5-dimethylphenoxy)-N-(4-morpholin-4-ylphenyl)butanamide] | – | – | – | partial inhibitor | – | 31.4 | IC50 [1, 4]: < 10 µM; IC50 ([1]; IC50 ± SD, Table 3, negative and silent allosteric modulators): 6.4 ± 0.5 µM; % Activity ESI (DGC activity of the enzyme-substrate-inhibitor complex) ([1]; Table 3, compound saturation): 31.4 ± 1.3%; Hill coeff ([1]; Table 3): 1.36 ± 0.13 |
| O=C(OCC(=O)N1CCCC1=O)c1ccc([N+](=O)[O-])cc1 [Compound 1r, 2-oxo-2-(2-oxopyrrolidin-1-yl)ethyl 4-nitrobenzoate] | – | 2.01 ± 0.18 | – | positive modulators | 156.4 ± 1.7 | 156 | AC50 [1]: 55.5 ± 13.6 µM |
| Cc1nc2ccc(C(=O)OCC(=O)N3CCCC3=O)cc2s1 [Compound 1i, 2-oxo-2-(2-oxopyrrolidin-1-yl)ethyl 2-methylbenzo[d]thiazole-6-carboxylate] | 52.9 ± 10.7 | 2.72 ± 1.28 | – | – | 68.1 ± 8.8 | – | – |
| O=C(OCC(=O)N1CCCC1=O)c1ccc2nccnc2c1 [Compound 1o, 2-oxo-2-(2-oxopyrrolidin-1-yl)ethyl quinoxaline-6-carboxylate] | 344 ± 19.9 | 2.22 ± 0.16 | strongly reduced binding affinities | negative modulators | 0.0 ± 0.7 | – | – |
| Cn1ccc2cc(C(=O)OCC(=O)N3CCCC3=O)ccc21 [Compound 1l, 2-oxo-2-(2-oxopyrrolidin-1-yl)ethyl 1-methyl-1H-indole-5-carboxylate] | 300 ± 37.7 | – | strongly reduced binding affinities | negative modulators | – | – | – |
| O=C(OCC(=O)N1CCCC1=O)c1ccccc1 [Compound 1h, 2-oxo-2-(2-oxopyrrolidin-1-yl)ethyl benzoate] | – | 2.02 ± 0.19 | – | positive modulators; also recorded: positive allosteric regulator | 117.9 ± 1.4 | 118 | AC50 [1]: 238 ± 72 µM |
| Nc1nc2c(ncn2[C@@H]2O[C@@H]3COP(=O)(O)O[C@H]4[C@@H](O)[C@H](n5cnc6c(=O)[nH]c(N)nc65)O[C@@H]4COP(=O)(O)O[C@H]3[C@H]2O)c(=O)[nH]1 [c-di-GMP, cyclic diguanosine monophosphate] | – | – | – | – | – | – | Kd ([2]; read-out: binding constant (KD) of the biosensor for c-di-GMP, 25°C): 0.198 µM |
| O=C(OCCC(=O)N1CCCC1=O)c1ccc2ncsc2c1 [Compound 1u, 3-oxo-3-(2-oxopyrrolidin-1-yl)propyl benzo[d]thiazole-6-carboxylate] | – | – | completely abolished binding affinity | – | – | – | – |
| Nc1nc2c(ncn2[C@@H]2O[C@H](COP(=O)(O)OP(=O)(O)OP(=O)(O)O)[C@@H](O)[C@H]2O)c(=O)[nH]1 [guanosine 5-triphosphate] | – | – | – | – | – | – | biosensor FRET response [2]: no detectable response |
| CN(C)c1ccc(C(=O)OCC(=O)N2CCCC2=O)cc1 [Compound 1q, 2-oxo-2-(2-oxopyrrolidin-1-yl)ethyl 4-(dimethylamino)benzoate] | – | 2.51 ± 0.68 | – | positive modulators | 176.1 ± 3.3 | 176 | AC50 [1]: 222 ± 85.6 µM |
| O=C(OCC(=O)N1CCCC1=O)c1ccc2scnc2c1 [Compound 1p, 2-oxo-2-(2-oxopyrrolidin-1-yl)ethyl benzothiazole-5-carboxylate] | 627 ± 49 | – | – | – | – | – | IC50 [1, 4]: 626 µM |
| O=C(OCC(=O)N1CCCC1=O)c1ccc2occc2c1 [Compound 1j, 2-Oxo-2-(2-oxopyrrolidin-1-yl)ethyl benzofuran-5-carboxylate] | 4.4 ± 2.2 | 2.05 ± 0.12 | – | silent allosteric modulators | 92.2 ± 0.6 | 92.2 | – |
| O=C(NCC(=O)N1CCCC1=O)c1ccc2ncsc2c1 [Compound 1s, N-(2-oxo-2-(2-oxopyrrolidin-1-yl)ethyl)-benzo[d]thiazole-6-carboxamide] | – | – | – | partial inhibitor | – | 48 | IC50 [1, 4]: 31.6 µM |
| O=C(OCC(=O)N1CCCC1=O)c1ccc2ncoc2c1 [Compound 1g, 2-oxo-2-(2-oxopyrrolidin-1-yl)ethyl benzo[d]oxazole-6-carboxylate] | 3.1 ± 0.7 | 2.35 ± 0.82 | – | silent allosteric modulators; also recorded: silent allosteric regulator | 87.7 ± 4.2 | 87.7 | – |
